PubChem BioAssay (NCI)
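Five compound concentrations were applied to cells in 96-well plates for 48 hours; endpoints were derived by simple linear interpolation of the resulting dose-response curve. TGI denotes the concentration required for complete inhibition of growth.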

Legend:
Experiment in all cases: NCI anticancer screen, dose series, 48 h
[1] = test system: 786-0 renal
[2] = test system: A498 renal
[3] = test system: A549 NSCLC
[4] = test system: ACHN renal
[5] = test system: CAKI-1 renal
[6] = test system: CCRF-CEM leukemia
[7] = test system: COLO 205 colon
[8] = test system: DLD-1 colon
[9] = test system: DMS 114 small cell lung
[10] = test system: DMS 273 small cell lung
[11] = test system: EKVX NSCLC
[12] = test system: HCC-2998 colon
[13] = test system: HCT-15 colon
[14] = test system: HL-60(TB) leukemia
[15] = test system: HOP-62 NSCLC
[16] = test system: HOP-92 NSCLC
[17] = test system: HT29 colon
[18] = test system: IGROV1 ovarian
[19] = test system: K-562 leukemia
[20] = test system: KM12 colon
[21] = test system: KM20L2 colon
[22] = test system: LOX IMVI melanoma
[23] = test system: LXFL 529 NSCLC
[24] = test system: M14 melanoma
[25] = test system: M19-MEL melanoma
[26] = test system: MALME-3M melanoma
[27] = test system: MOLT-4 leukemia
[28] = test system: NCI-H226 lung
[29] = test system: NCI-H23 lung
[30] = test system: NCI-H460 lung
[31] = test system: NCI-H522 lung
[32] = test system: OVCAR-3 ovarian
[33] = test system: OVCAR-4 ovarian
[34] = test system: OVCAR-5 ovarian
[35] = test system: OVCAR-8 ovarian
[36] = test system: RPMI-8226 leukemia
[37] = test system: RXF 393 renal
[38] = test system: SF-268 CNS
[39] = test system: SF-295 CNS
[40] = test system: SF-539 CNS
[41] = test system: SK-MEL-2 melanoma
[42] = test system: SK-MEL-28 melanoma
[43] = test system: SK-MEL-5 melanoma
[44] = test system: SK-OV-3 ovarian
[45] = test system: SN12C renal
[46] = test system: SNB-19 CNS
[47] = test system: SNB-75 CNS
[48] = test system: SNB-78 CNS
[49] = test system: SW-620 colon
[50] = test system: TK-10 renal
[51] = test system: UACC-257 melanoma
[52] = test system: UACC-62 melanoma
[53] = test system: UO-31 renal
[54] = test system: HCT-116 colon
[55] = test system: SR leukemia
[56] = test system: U251 CNS
[57] = test system: XF 498 CNS

Measured: TGI

COc1ccc(C(=O)N2c3ccccc3N(C)n3cccc3C2CC(=O)O)cc1 (stereo not given)
not listed: [54] | [55] | [56] | [57]
> 100 µM: all other assays above

CC1(C)CC(C)(C)CC(O)(C2(O)CC(C)(C)CC(C)(C)C2)C1
not listed: [2] | [5] | [8] | [16] | [33] | [34] | [37] | [41] | [47] | [48]
> 100 µM: all other assays above
